From patent US20210371804A1, “Videomicroscopy of contractile cell cultures and cell culture methods using same” (Institut de Cardiologie de Montréal, priority 2020, published 2021) come the findings set out here.

The test system of this experiment is neonatal cardiomyocytes. Nature of the experiment: Videomicroscopy of contraction (composite signal ΔS) of neonatal cardiomyocyte monolayers. It counts as cell-based, rat. The note with it: 1 minute after injection. The procedure:
All animal-handling procedures were concordant with the Canadian Council on Animal Care guidelines and were approved by the institutional Animal Research Ethics Committee. Isolation was performed according to the protocol of the neonatal cardiomyocyte isolation kit from Worthington. In summary, one to three days old rats (Sprague-Dawley, Charles River) were sacrificed by decapitation. Beating heart were removed from the rats and immediately put in cold Ca^2+ and Mg^2+-free Hank's Balanced Salt Solution. Ventricular muscle was selected by excision and tissue was minced on ice into 1-3 mm^3 pieces. The mixture was subjected to purified enzymatic digestion (trypsin and collagenase). Isolated cells (enriched cardiomyocytes) were counted and seeded at a density of 10^6 cells/mL in the seeding area of the membrane pre-coated with 0.2% porcine-derived gelatin (G1890, Sigma) and 0.00125% fibronectin solution (F1141, Sigma). Cells were grown for 24 hours in DMEM (319-050-CL, Wisent) with 5% fetal bovine serum (FBS, SH30396.03, Fisher Scientic Co. Ltd) and 1% penicillin/streptomycin (450-201-EL, Wisent). Cardiomyocytes were then FBS starved with 1% penicillin/streptomycin in DMEM 24 h prior to the experiments. Acute effects of the β-adrenergic agonist, isoproterenol (ISO, 16504, Sigma-Aldrich) was studied by videomicroscopy with final concentration of 100 nM at 1 minute after injection. […]

Take `CC(C)NCC(O)c1ccc(O)c(O)c1` (centres unmarked) [ISO, isoproterenol]: where the note is “ISO 100 nM, 0.146 for CTL, <T> and group effects p<0.001”, the “slope of the linear regression of <RatioC/R> as a function of <T>” value is on record as 0.490. The compound further returned a period of activity (ISO final concentration 100 nM, vs. 1.9±2.4 s in CTL, p<0.05) of 0.9 ± 0.6 s.
